The values below come from patent US20110263588A1, “TRICYCLIC COMPOUNDS AS GLUTAMATE RECEPTOR MODULATORS” (GLAXO GROUP LIMITED, priority 2008, published 2011).

For the assay, the target named is T1, human mGlu5 recombinant receptor (Homo sapiens, UniProt P41594).
T1 construct: expressed in transfected cells; host or cells: inducible CHO cell line stably expressing Aequorin (Euroscreen FAST); doxycycline-responsive promoter
T1 sequence (P41594 21-1212): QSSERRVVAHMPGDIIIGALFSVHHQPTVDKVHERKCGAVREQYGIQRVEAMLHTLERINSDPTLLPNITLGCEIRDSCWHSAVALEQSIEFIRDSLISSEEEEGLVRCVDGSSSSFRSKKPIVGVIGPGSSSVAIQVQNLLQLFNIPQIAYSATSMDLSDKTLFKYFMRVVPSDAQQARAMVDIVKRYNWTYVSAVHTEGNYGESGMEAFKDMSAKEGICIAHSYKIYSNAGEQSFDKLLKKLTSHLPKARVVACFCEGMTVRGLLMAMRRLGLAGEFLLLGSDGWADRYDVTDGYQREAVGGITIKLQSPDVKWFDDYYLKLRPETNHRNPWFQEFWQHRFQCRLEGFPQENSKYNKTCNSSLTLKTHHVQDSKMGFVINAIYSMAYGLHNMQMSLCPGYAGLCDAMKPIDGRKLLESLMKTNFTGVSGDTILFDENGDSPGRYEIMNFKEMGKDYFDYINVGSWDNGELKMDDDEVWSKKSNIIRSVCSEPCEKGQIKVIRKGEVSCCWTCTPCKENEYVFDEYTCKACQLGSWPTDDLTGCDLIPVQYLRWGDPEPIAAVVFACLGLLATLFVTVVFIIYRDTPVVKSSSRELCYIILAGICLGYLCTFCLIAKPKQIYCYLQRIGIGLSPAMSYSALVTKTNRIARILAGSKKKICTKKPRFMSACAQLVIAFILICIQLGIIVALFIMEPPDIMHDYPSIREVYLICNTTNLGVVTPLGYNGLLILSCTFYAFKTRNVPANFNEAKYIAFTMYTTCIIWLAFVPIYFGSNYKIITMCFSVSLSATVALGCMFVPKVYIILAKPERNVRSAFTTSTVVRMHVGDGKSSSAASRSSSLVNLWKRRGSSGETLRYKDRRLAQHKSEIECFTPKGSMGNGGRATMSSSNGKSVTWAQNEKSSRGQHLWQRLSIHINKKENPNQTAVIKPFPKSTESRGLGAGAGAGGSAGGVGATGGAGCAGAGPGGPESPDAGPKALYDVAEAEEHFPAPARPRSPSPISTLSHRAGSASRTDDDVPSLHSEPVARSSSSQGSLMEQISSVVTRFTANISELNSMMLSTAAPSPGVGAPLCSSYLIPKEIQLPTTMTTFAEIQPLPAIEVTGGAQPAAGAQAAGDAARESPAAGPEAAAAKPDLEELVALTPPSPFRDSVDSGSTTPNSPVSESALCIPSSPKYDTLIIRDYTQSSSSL
Description: mGluR5 calcium mobilization in inducible mGluR5 CHO cells (aequorin luminescence, antagonist mode). The assay is classed as cell-based. Conditions: Table 3; antagonist activity against EC80 glutamate, inducible CHO cell line expressing human mGlu5 and Aequorin; read-out: IC50 (uM) Ca^++ flux. The source says:
mGluR5 Calcium Mobilization in Inducible mGluR5 CHO Cells
To functionally measure mGluR5 calcium mobilization in response to agonists or antagonists, an inducible CHO cell line expressing the human mGlu5 recombinant receptor was used. This cell line also stably expressed Aequorin (Euroscreen FAST), a photoprotein that spontaneously couples with coelenterazine h when added exogenously in the cell media. The Aequorin-coelenterzine h complex undergoes a conformational change upon binding of calcium ions which results in the emission of blue light (wavelength 469 nm) that was measured using a Hamamatsu Functional Drug Screening System 6000.
mGluR5 expression was induced by a doxycycline responsive promoter by growing cells to mid-log phase for 18 hours in media without antibiotics and supplemented with doxycycline (600 ng/mL). Cells were detached from the plate by gentle flushing using PBS-EDTA (5 mM EDTA) and centrifuged for collection and resuspended in “assay buffer” (HBSS, 2.1 mM CaCl2, 2 ug/mL glutamate-pyruvate transaminase, 4 mM MEM sodium pyruvate, and 0.1% protease free BSA). Cells were incubated with coelenterazine h (Molecular Probes) at room temperature for 4 hours before testing.
To measure mGluR5 antagonist activity, cell suspensions containing test compound were mixed with EC80 glutamate and emission of light was recorded. Reference and test compounds were tested at several concentrations in duplicate to obtain dose response curves using the Prism GraphPad software (GraphPad Software Inc.). IC50 values were calculated from the dose response curves using the equation:
Y=Bottom+(Top−Bottom)/(1+10̂((LogEC50−X)*HillSlope)).
On to `Cn1nc(C(=O)Nc2cccc(Cl)c2)c2c1-c1ccsc1CC2` [N-(3-chlorophenyl)-1-methyl-4,5-dihydro-1H-thieno[2,3-g]indazole-3-carboxamide], for which the IC50 (usually the concentration at which inhibition is half-maximal) is more than 10 µM.

Turning to `O=C(Nc1cccc(Cl)c1)c1noc2c1CSc1ccccc1-2` [N-(3-chlorophenyl)-4H-thiochromeno[3,4-d]isoxazole-3-carboxamide], the IC50 was less than 1 µM. As for `CN(C(=O)c1nn(C)c2c1COc1ccccc1-2)c1cccc(Cl)c1` [N-(3-chlorophenyl)-N,1-dimethyl-1,4-dihydrochromeno[4,3-c]pyrazole-3-carboxamide], the IC50 is more than 10 µM.

Consider `CN(C(=O)c1noc2c1COc1ccccc1-2)c1cccc(Cl)c1` [N-(3-chlorophenyl)-N-methyl-4H-chromeno[3,4-d]isoxazole-3-carboxamide], for which the IC50 was more than 10 µM.

With `COc1cccc(NC(=O)c2n[nH]c3c2COc2ccccc2-3)c1` [N-(3-methoxyphenyl)-1,4-dihydrochromeno[4,3-c]pyrazole-3-carboxamide], the IC50 was more than 10 µM. With `COc1cccc(NC(=O)c2nn(C)c3c2COc2ccccc2-3)c1` [N-(3-methoxyphenyl)-1-methyl-1,4-dihydrochromeno[4,3-c]pyrazole-3-carboxamide], the IC50 is more than 10 µM.

As for `Cn1nc(C(=O)Nc2ccc(Cl)cc2)c2c1-c1ccccc1OC2` [N-(4-chlorophenyl)-1-methyl-1,4-dihydrochromeno[4,3-c]pyrazole-3-carboxamide], the 50% inhibitory concentration (IC50) was more than 10 µM. On to `O=C(Nc1ccc(Cl)cc1)c1n[nH]c2c1CCc1ccccc1-2` [N-(4-chlorophenyl)-4,5-dihydro-1H-benzo[g]indazole-3-carboxamide], for which the half-maximal inhibitory concentration (IC50) is more than 10 µM. To `Cn1nc(C(=O)Nc2ccc(F)cc2)c2c1-c1ccccc1OC2` [N-(4-fluorophenyl)-1-methyl-1,4-dihydrochromeno[4,3-c]pyrazole-3-carboxamide] belongs more than 10 µM. The value for `COc1ccc(NC(=O)c2n[nH]c3c2COc2ccccc2-3)cc1` [N-(4-methoxyphenyl)-1,4-dihydrochromeno[4,3-c]pyrazole-3-carboxamide] was more than 10 µM; that for `COc1ccc(Cl)cc1NC(=O)c1nn(C)c2c1COc1ccccc1-2` [N-(5-chloro-2-methoxyphenyl)-1-methyl-1,4-dihydrochromeno[4,3-c]pyrazole-3-carboxamide] was 1 to 10 µM. For `Cn1nc(C(=O)Nc2ccc(Cl)cn2)c2c1-c1ccccc1OC2` [N-(5-chloropyridin-2-yl)-1-methyl-1,4-dihydrochromeno[4,3-c]pyrazole-3-carboxamide], the IC50 is less than 1 µM. To `O=C(Nc1cccnc1)c1n[nH]c2c1COc1ccccc1-2` [N-(pyridin-3-yl)-1,4-dihydrochromeno[4,3-c]pyrazole-3-carboxamide] belongs more than 10 µM.
